Experimental data taken from publication PMC9898036, “VIP152 is a selective CDK9 inhibitor with pre-clinical in vitro and in vivo efficacy in chronic lymphocytic leukemia” (Leukemia, 2022).

What was measured:
Test in all cases: DiscoverX KINOMEscan kinase profiling (468 assays)
Assay type in all cases: binding
human kinome [1] = target: human kinome (Homo sapiens, UniProt P78356); settings: read-out: Percent Control
In short: (§1)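 DNA-tagged kinases competed for immobilized biotinylated ligands on streptavidin magnetic beads, with bound kinase quantified by qPCR. VIP152 in DMSO was tested against a DMSO control.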

human kinome [2] = target: human kinome (Homo sapiens, UniProt Q9NYL2); settings: kinase ZAK (Entrez ZAK); compound concentration 1000 nM; read-out: Percent Control
In short: as §1

human kinome [3] = target: human kinome (Homo sapiens, UniProt Q56UN5); settings: kinase YSK4 (Entrez MAP3K19); compound concentration 1000 nM; read-out: Percent Control
In short: as §1

human kinome [4] = target: human kinome (Homo sapiens, UniProt O14936); settings: CASK; 100 nM; read-out: Percent Control
In short: as §1

human kinome [5] = target: human kinome (Homo sapiens, UniProt P07949, M918T); settings: kinase RET(M918T) (Entrez RET); compound concentration 1000 nM; read-out: Percent Control
In short: as §1

human kinome [6] = target: human kinome (Homo sapiens, UniProt P10721, V559D/V654A); settings: KIT(V559D,V654A); 100 nM; read-out: Percent Control
In short: as §1

human kinome [7] = target: human kinome (Homo sapiens, UniProt Q14289); settings: read-out: Percent Control
In short: as §1

human kinome [8] = target: human kinome (Homo sapiens, UniProt Q96Q40); settings: read-out: Percent Control
In short: as §1

human kinome [9] = target: human kinome (Homo sapiens, UniProt O96013); settings: read-out: Percent Control
In short: as §1

human kinome [10] = target: human kinome (Homo sapiens, UniProt P57078); settings: kinase RIPK4 (Entrez RIPK4); compound concentration 1000 nM; read-out: Percent Control
In short: as §1

human kinome [11] = target: human kinome (Homo sapiens, UniProt P21127); settings: CDC2L1 (Entrez CDK11B); 100 nM; read-out: Percent Control
In short: as §1

human kinome [12] = target: human kinome (Homo sapiens, UniProt O14578); settings: CIT; 100 nM; read-out: Percent Control
In short: as §1

human kinome [13] = target: human kinome (Homo sapiens, UniProt Q9UQ88); settings: CDC2L2; 100 nM; read-out: Percent Control
In short: as §1

human kinome [14] = target: human kinome (Homo sapiens, UniProt P42336); settings: read-out: Percent Control
In short: as §1

human kinome [15] = target: human kinome (Homo sapiens, UniProt P06239); settings: LCK; 100 nM; read-out: Percent Control
In short: as §1

human kinome [16] = target: human kinome (Homo sapiens, UniProt Q9UQB9); settings: AURKC; 100 nM; read-out: Percent Control
In short: as §1

human kinome [17] = target: human kinome (Homo sapiens, UniProt P57058); settings: HUNK; 100 nM; read-out: Percent Control
In short: as §1

human kinome [18] = target: human kinome (Homo sapiens, UniProt Q9NRP7); settings: kinase STK36 (Entrez STK36); compound concentration 1000 nM; read-out: Percent Control
In short: as §1

human kinome [19] = target: human kinome (Homo sapiens, UniProt P42336, C420R); settings: read-out: Percent Control
In short: as §1

human kinome [20] = target: human kinome (Homo sapiens, UniProt P04629); settings: kinase TRKA (Entrez NTRK1); compound concentration 1000 nM; read-out: Percent Control
In short: as §1

human kinome [21] = target: human kinome (Homo sapiens, UniProt P42680); settings: kinase TEC (Entrez TEC); compound concentration 1000 nM; read-out: Percent Control
In short: as §1

human kinome [22] = target: human kinome (Homo sapiens, UniProt Q13882); settings: BRK (Entrez PTK6); 100 nM; read-out: Percent Control
In short: as §1

human kinome [23] = target: human kinome (Homo sapiens, UniProt Q15303); settings: ERBB4; 100 nM; read-out: Percent Control
In short: as §1

human kinome [24] = target: human kinome (Homo sapiens, UniProt Q96D53); settings: ADCK4; 100 nM; read-out: Percent Control
In short: as §1

human kinome [25] = target: human kinome (Homo sapiens, UniProt Q9P289); settings: MST4; 100 nM; read-out: Percent Control
In short: as §1

human kinome [26] = target: human kinome (Homo sapiens, UniProt P49759); settings: CLK1; 100 nM; read-out: Percent Control
In short: as §1

human kinome [27] = target: human kinome (Homo sapiens, UniProt O15264); settings: read-out: Percent Control
In short: as §1

human kinome [28] = target: human kinome (Homo sapiens, UniProt P11362); settings: FGFR1; 100 nM; read-out: Percent Control
In short: as §1

human kinome [29] = target: human kinome (Homo sapiens, UniProt Q9BXA7); settings: kinase TSSK1B (Entrez TSSK1B); compound concentration 1000 nM; read-out: Percent Control
In short: as §1

human kinome (Homo sapiens, UniProt O96013), sequence (O96013 whole entry): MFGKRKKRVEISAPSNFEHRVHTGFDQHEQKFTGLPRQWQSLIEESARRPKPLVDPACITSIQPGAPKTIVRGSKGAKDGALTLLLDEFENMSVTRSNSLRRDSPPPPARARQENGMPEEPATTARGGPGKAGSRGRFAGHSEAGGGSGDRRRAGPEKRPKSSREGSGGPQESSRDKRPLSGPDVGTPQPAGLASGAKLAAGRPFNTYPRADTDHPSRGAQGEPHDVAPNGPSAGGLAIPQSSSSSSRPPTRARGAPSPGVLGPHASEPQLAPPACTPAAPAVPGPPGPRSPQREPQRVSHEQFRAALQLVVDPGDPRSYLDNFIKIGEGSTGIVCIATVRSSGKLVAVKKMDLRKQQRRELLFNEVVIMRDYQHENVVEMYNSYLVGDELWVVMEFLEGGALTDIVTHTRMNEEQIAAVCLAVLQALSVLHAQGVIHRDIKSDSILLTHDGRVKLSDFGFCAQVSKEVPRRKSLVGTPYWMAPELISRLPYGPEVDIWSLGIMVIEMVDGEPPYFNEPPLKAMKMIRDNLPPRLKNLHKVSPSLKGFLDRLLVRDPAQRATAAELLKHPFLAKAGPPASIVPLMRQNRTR
human kinome (Homo sapiens, UniProt Q96Q40), sequence (Q96Q40 whole entry): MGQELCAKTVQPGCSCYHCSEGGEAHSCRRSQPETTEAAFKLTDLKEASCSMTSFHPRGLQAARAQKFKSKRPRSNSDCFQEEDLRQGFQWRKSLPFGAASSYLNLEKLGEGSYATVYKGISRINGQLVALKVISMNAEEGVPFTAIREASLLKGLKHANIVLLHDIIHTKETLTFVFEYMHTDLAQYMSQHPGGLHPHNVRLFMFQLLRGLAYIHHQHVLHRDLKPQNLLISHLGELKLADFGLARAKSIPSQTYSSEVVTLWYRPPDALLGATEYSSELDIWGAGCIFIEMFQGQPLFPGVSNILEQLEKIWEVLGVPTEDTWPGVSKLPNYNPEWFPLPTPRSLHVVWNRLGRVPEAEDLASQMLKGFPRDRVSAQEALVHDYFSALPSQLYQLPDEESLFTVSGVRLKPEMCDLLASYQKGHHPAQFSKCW
human kinome (Homo sapiens, UniProt P42336), sequence (P42336 whole entry): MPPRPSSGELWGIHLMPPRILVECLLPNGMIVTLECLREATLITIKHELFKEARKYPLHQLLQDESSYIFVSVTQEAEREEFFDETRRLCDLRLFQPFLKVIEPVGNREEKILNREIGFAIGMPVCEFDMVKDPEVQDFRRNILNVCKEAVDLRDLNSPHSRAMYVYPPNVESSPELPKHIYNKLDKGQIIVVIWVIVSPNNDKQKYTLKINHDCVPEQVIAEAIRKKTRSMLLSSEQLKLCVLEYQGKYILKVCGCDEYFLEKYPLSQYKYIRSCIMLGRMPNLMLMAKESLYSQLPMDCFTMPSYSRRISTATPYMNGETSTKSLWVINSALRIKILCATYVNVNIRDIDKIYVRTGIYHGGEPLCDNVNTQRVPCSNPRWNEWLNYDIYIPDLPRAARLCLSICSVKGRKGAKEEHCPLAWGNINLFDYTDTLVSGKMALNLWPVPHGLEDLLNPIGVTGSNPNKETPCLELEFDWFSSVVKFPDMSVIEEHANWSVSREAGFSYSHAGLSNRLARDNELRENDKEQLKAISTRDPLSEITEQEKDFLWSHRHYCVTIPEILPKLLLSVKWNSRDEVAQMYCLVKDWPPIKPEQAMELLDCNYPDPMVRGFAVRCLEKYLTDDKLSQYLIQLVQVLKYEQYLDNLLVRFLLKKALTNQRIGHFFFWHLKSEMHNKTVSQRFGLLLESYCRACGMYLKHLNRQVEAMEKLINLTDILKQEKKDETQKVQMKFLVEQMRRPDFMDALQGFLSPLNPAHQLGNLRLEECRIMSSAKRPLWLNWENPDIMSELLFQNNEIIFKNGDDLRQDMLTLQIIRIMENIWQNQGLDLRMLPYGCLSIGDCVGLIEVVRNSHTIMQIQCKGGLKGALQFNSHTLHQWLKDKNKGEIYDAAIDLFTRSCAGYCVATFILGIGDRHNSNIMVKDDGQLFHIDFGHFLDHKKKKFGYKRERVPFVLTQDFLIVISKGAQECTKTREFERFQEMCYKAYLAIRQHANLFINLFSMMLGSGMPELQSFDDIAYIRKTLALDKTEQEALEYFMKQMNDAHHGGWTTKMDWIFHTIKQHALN
human kinome (Homo sapiens, UniProt O15264), sequence (O15264 whole entry): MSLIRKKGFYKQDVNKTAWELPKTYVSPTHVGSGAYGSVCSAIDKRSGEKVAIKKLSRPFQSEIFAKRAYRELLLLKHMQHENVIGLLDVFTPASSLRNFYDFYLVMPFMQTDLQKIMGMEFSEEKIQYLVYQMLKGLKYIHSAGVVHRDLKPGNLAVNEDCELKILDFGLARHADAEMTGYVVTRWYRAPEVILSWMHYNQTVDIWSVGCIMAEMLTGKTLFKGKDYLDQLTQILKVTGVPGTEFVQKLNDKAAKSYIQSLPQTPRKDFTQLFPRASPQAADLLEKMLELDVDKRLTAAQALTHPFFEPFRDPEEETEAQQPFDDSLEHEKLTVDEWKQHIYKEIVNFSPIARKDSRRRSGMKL
human kinome (Homo sapiens, UniProt P78356), sequence (P78356 whole entry): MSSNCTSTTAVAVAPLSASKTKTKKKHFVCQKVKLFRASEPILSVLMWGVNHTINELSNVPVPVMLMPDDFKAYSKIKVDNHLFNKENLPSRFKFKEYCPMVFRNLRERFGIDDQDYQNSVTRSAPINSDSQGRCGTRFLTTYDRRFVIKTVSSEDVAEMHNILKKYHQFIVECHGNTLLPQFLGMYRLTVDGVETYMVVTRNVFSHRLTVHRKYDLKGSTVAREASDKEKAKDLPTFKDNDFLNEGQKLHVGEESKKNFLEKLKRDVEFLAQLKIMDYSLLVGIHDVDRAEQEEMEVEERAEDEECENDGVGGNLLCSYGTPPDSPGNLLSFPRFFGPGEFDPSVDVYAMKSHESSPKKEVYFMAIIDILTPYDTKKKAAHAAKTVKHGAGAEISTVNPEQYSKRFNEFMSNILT
human kinome (Homo sapiens, UniProt Q14289), sequence (Q14289 whole entry): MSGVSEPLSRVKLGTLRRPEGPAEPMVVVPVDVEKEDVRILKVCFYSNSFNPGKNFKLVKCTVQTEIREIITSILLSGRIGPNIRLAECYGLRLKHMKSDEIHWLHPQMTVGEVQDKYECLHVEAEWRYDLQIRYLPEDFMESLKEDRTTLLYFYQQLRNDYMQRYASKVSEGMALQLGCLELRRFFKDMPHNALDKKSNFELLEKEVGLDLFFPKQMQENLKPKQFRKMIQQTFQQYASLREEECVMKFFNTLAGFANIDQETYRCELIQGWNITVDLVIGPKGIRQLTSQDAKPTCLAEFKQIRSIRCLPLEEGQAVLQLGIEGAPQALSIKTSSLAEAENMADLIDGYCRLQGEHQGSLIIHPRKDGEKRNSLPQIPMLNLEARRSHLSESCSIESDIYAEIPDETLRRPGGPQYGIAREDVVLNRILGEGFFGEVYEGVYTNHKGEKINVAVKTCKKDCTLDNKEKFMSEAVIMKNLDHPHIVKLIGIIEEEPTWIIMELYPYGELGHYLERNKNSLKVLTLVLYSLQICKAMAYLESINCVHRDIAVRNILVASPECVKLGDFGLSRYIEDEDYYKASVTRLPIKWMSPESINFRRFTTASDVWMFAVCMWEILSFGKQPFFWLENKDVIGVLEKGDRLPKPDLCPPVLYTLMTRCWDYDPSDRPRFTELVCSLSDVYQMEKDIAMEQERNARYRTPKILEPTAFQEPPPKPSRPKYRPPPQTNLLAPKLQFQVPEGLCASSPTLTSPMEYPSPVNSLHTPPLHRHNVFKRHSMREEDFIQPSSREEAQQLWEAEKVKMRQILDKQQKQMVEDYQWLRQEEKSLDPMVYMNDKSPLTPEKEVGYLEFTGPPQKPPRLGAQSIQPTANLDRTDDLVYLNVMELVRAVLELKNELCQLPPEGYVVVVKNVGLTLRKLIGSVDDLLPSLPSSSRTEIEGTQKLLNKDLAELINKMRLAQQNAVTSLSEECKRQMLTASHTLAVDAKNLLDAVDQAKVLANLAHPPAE
human kinome (Homo sapiens, UniProt P42336, C420R), sequence (P42336 whole entry C420R): as the sequence (P42336 whole entry) above, with C420R counted along it
human kinome (Homo sapiens, UniProt P06239), sequence (P06239 whole entry): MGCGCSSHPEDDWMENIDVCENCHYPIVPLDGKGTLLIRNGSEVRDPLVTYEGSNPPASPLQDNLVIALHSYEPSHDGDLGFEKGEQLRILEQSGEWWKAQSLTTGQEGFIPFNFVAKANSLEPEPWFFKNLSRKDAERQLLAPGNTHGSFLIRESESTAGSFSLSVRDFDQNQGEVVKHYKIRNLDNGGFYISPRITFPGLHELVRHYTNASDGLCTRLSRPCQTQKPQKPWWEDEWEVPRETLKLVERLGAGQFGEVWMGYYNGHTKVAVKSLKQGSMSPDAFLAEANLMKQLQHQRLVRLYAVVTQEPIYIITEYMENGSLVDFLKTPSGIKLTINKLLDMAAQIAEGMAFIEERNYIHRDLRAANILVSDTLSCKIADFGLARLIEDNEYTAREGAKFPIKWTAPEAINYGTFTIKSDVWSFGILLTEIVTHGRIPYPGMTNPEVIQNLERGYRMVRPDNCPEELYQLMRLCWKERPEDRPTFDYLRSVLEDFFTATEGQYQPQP
human kinome (Homo sapiens, UniProt P49759), sequence (P49759 whole entry): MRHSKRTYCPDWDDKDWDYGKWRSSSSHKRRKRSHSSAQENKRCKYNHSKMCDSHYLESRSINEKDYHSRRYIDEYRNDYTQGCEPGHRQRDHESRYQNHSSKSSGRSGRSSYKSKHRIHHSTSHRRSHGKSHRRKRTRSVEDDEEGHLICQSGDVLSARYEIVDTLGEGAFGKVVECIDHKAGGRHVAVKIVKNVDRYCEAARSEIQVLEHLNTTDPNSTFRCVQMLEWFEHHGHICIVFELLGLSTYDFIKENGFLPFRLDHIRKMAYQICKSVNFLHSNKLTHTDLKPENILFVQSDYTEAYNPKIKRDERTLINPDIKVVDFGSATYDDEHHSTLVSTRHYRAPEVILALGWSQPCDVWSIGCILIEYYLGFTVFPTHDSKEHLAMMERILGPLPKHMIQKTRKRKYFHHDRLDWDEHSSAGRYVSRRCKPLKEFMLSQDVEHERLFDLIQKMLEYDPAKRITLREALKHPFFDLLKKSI

Molecule `COc1cc(F)ccc1-c1cc(Nc2cc(CS(C)(=N)=O)ccn2)ncc1F` (stereo not drawn) [VIP152] has a remaining binding at 0.1 µM (human kinome [1]; PIP5K2B (Entrez PIP4K2B), 100 nM) of 100%, a remaining binding at 1 µM (human kinome [1]; kinase PIP5K2B (Entrez PIP4K2B), compound concentration 1000 nM) of 100% and a remaining binding at 1 µM (human kinome [2]) of 79%. It also gave a remaining binding at 1 µM (human kinome [3]) of 19%, a remaining binding at 0.1 µM (human kinome [4]) of 78% and a remaining binding at 1 µM (human kinome [5]) of 73%. The remaining binding at 0.1 µM (human kinome [6]) was 100%, the remaining binding at 0.1 µM (human kinome [7]; PYK2 (Entrez PTK2B), 100 nM) was 100% and the remaining binding at 1 µM (human kinome [7]; kinase PYK2 (Entrez PTK2B), compound concentration 1000 nM) was 90%. For the same molecule, the remaining binding at 0.1 µM (human kinome [8]; PFTAIRE2 (Entrez CDK15), 100 nM) was 100%, the remaining binding at 1 µM (human kinome [8]; kinase PFTAIRE2 (Entrez CDK15), compound concentration 1000 nM) was 70% and the remaining binding at 0.1 µM (human kinome [9]; PAK4, 100 nM) was 100%. The remaining binding at 1 µM (human kinome [9]; kinase PAK4 (Entrez PAK4), compound concentration 1000 nM) was 89%, the remaining binding at 1 µM (human kinome [10]) was 49% and the remaining binding at 0.1 µM (human kinome [11]) was 100%. For the same molecule, the remaining binding at 0.1 µM (human kinome [12]) was 100%, the remaining binding at 0.1 µM (human kinome [13]) was 100% and the remaining binding at 0.1 µM (human kinome [14]; PIK3CA, 100 nM) was 100%. It also gave a remaining binding at 1 µM (human kinome [14]; kinase PIK3CA (Entrez PIK3CA), compound concentration 1000 nM) of 95%, a remaining binding at 0.1 µM (human kinome [15]) of 100% and a remaining binding at 0.1 µM (human kinome [16]) of 100%. The remaining binding at 0.1 µM (human kinome [17]) was 88%, the remaining binding at 1 µM (human kinome [18]) was 84% and the remaining binding at 0.1 µM (human kinome [19]; PIK3CA(C420R), 100 nM) was 98%. For the same molecule, the remaining binding at 1 µM (human kinome [19]; kinase PIK3CA(C420R) (Entrez PIK3CA), compound concentration 1000 nM) was 92%, the remaining binding at 1 µM (human kinome [20]) was 9.8% and the remaining binding at 1 µM (human kinome [21]) was 100%. The remaining binding at 0.1 µM (human kinome [22]) was 100%, the remaining binding at 0.1 µM (human kinome [23]) was 100% and the remaining binding at 0.1 µM (human kinome [24]) was 100%. It also gave a remaining binding at 0.1 µM (human kinome [25]) of 100%, a remaining binding at 0.1 µM (human kinome [26]) of 92% and a remaining binding at 1 µM (human kinome [27]; kinase p38-delta (Entrez MAPK13), compound concentration 1000 nM) of 98%. It also gave a remaining binding at 0.1 µM (human kinome [27]; p38-delta (Entrez MAPK13), 100 nM) of 100%, a remaining binding at 0.1 µM (human kinome [28]) of 100% and a remaining binding at 1 µM (human kinome [29]) of 92%.
